As usually defined, the IC50 is the concentration that gives 50% inhibition. One may read the solubility as the concentration that dissolves in the medium under given conditions.

Converted amounts (≈) assume the structure as drawn.

One data set has as its target T1, Cytochrome P450 2C8 (Homo sapiens, UniProt P10632).
T1 sequence (P10632 whole entry): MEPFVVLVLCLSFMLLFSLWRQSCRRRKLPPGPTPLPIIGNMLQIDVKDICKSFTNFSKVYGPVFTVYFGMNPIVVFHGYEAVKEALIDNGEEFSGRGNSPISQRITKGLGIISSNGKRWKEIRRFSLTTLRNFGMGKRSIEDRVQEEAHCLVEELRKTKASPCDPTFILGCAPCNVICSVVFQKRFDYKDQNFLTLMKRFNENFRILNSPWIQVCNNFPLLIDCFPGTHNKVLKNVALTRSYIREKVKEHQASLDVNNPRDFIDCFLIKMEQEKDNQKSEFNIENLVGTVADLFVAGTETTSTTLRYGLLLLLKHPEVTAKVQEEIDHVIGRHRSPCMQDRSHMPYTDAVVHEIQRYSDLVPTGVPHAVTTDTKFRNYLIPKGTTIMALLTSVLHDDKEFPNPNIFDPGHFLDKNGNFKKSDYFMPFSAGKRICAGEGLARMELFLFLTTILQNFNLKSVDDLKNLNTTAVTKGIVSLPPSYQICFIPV
The experiment in a line: Inhibition of CYP2C8 in human liver microsomes after 10 mins by mechanism-based assay. The format is ADME. In general terms: Microsomes from liver hold many membrane-bound enzymes, among them those of drug oxidation.

Data set [1] has as its target T2, Bifunctional epoxide hydrolase 2 (Rattus norvegicus, UniProt P80299).
T2 sequence (P80299 whole entry): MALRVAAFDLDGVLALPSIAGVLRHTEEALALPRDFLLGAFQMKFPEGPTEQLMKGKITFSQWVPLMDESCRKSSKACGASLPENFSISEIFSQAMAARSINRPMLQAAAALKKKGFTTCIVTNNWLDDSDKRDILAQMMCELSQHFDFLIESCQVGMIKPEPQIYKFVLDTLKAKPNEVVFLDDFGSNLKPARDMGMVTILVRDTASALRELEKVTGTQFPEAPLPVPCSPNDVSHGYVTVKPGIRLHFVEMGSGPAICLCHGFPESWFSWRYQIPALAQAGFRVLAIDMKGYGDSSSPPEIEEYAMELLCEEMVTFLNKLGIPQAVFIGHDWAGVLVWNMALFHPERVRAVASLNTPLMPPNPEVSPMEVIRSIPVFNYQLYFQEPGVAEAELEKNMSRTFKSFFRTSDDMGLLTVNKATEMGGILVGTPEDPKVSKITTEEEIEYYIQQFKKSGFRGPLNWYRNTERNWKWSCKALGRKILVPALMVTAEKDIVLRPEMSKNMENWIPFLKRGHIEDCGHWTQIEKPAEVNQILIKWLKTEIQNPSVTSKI
The experiment in a line: Inhibition of rat recombinant soluble epoxide hydrolase after 1 hr by fluorescence assay.

Data set [2] deals with Liver microsome. The experiment in a line: Intrinsic clearance in rat liver microsomes measured per mg of protein at 1 uM after 30 mins by LC/MS/MS analysis. The note with it: 0.5 h. Format: ADME.
In a further data set the target is Cytochrome P450 2C19 (Homo sapiens, UniProt P33261). The experiment in a line: Inhibition of CYP2C19 in human liver microsomes after 10 mins by mechanism-based assay. The format is ADME.
The subject of data set [3] is Liver microsome. The experiment in a line: Intrinsic clearance in human liver microsomes measured per mg of protein at 1 uM after 30 mins by LC/MS/MS analysis. Format: ADME. To be noted: 0.5 h.
Data set [4] can be described thus: Aqueous solubility of the compound at pH 7.4 after 90 mins. The format is physicochemical.

Chain of Cytochrome P450 2C19 (P33261 whole entry): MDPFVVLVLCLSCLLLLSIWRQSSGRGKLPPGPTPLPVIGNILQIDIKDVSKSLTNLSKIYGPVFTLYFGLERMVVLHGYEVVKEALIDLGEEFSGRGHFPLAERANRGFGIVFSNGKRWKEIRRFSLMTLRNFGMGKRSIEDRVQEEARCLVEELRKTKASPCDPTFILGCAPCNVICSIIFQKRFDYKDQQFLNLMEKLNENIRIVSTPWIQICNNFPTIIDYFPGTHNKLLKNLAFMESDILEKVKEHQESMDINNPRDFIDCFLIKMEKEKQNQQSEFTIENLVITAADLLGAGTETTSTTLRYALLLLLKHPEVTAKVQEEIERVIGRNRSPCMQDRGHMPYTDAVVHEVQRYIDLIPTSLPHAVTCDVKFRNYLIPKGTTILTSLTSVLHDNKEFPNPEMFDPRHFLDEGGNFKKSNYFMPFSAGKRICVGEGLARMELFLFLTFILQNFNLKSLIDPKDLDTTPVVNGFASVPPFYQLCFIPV

Turning to `CC(C)c1noc(C2CCN(C(=O)N[C@H]3C[C@@H]3c3ccccc3)CC2)n1` (relative stereo), the “inhibition (INH)” value against Cytochrome P450 2C8 and at Cytochrome P450 2C19 was “Active” throughout. Moreover, the IC50 in data set [1] is 8.3 nM. The figures for the CLint in the data set on Liver microsome [2] and in the data set on Liver microsome [3] were 79 µL/min/mg and under 10 µL/min/mg, respectively. For the same compound, the concentration in solution in data set [4] (solubility at 1.5 h) came to 41 µg/mL (≈ 116 µM).

Values taken from ChEMBL document CHEMBL3112438, “Structure-based optimization of cyclopropyl urea derivatives as potent soluble epoxide hydrolase inhibitors for potential decrease of renal injury without hypotensive action” (Bioorg Med Chem, 2014).
